Test results published in patent US8247449B2, “Methods and compositions for the treatment of asthma” (Wake Forest University, priority 1998, dated 2012).
Entries after “also recorded” stand apart in the source; their conditions may differ. Where two headings read alike, the source gives them in different places. One block for each molecule: values may come before it.

What was measured:
[1] = tested on: leukotriene generation by stimulated neutrophils; assay: Inhibition of leukotriene generation in A23187-stimulated neutrophils in vitro; type: cell-based, human; conditions: neutrophils from unsupplemented volunteers, ionophore A23187, read-out: IC50 of inhibition of leukotriene generation (LTB4 and 20-OH LTB4)
Experimental: (§1) Leukotrienes are separated by reverse phase HPLC utilizing an Ultrasphere ODS column (2.1 mm.×250 mm: Rainin Instrument Co, Woburn, Mass.) eluted with methanol/water/phosphoric acid (550:450:0.2 v/v, pH 5.7) as the mobile phase at 0.3 ml/min. After 5 min the methanol composition of the mobile phase is increased from 55% to 100% over a 20 min period. The mole quantities of each leukotriene are determined by examining its UV optical density at 270 nm. Individual peaks are integrated and their recoveries normalized by comparing these integrated areas to that of PGB2 added as an internal standard.
It is contemplated that neutrophils may also produce 8-hydroxy-9,11,14 […] from DGLA. […] Studies were also designed to examine whether 15-HETrE produced by neutrophils might influence LTB4 generation. […] Neutrophils were isolated from normal unsupplemented volunteers and were treated with various concentrations of 15-HETrE and then stimulated with ionophore A23187.

[2] = tested on: Δ^5 desaturase in human liver cell line HEP-G2; assay: Inhibition of DGLA conversion to AA (Δ5 desaturase) in HEP-G2 liver cells; type: cell-based; conditions: HepG2, HEP-G2, EPA at 50 μM added with DGLA, read-out: maximum inhibition of DGLA conversion to AA
From the text: This study illustrates the effectiveness of adding a Δ^5 desaturase inhibitor in conjunction with GLA in order to reduce serum arachidonic acid.

atopic asthmatics [3] = tested on: atopic asthmatics
From the text: Clinical data on each patient is entered into a database consisting of the following elements. Demographic data (age, sex, race, smoking history), and the data elements used to fulfill the above diagnostic criteria, spirometric data, presence of atopy (positive “prick” skin testing to respirable antigens), presence of LAR to inhaled antigen, and presence of allergic rhinoconjunctivitis. • Allergen skin testing—Atopic asthmatic subjects are identified by skin testing using the skin prick method at a 1:10 (wt/vol) dilution of 20 stock antigen solutions (Greer Laboratories, Lenoir, N.C.). Subjects must not be receiving immunotherapy, nor may they be treated with systemic corticosteroids for a minimum of 4 wk. Short acting antihistamines are avoided for at least 24 h and long acting for at least 7 days. Atopic subjects are defined as those with a positive response consisting of a wheal of at least 3 by 3 mm to one or more antigens, with an appropriately negative saline control. • Allergen Inhalation Challenge—The immediate (early) asthmatic response (EAR) or late asthmatic response (LAR) is studied under controlled conditions using inhaled antigenic challenge in volunteer patients with asthma using a previously described protocol (Smith et al., Clin. Pharm. Ther., 54:430-436, 1993). Atopic asthmatics undergo inhaled allergen challenge followed by BAL according to the following protocol. Subjects must have no lung disease other than asthma, and, on the day of testing, must have a baseline FEV1>70% of predicted. Subjects must not be receiving immunotherapy, nor may they be treated with cromolyn sodium or corticosteroids (inhaled or systemic) or leukotriene antagonist for a minimum of 4 wk. Short-acting antihistamines are avoided for at least 24 h and intermediate acting for 7 days (astemizole for 6 weeks). Theophylline preparations are withheld for 24 h prior to challenge and beta-agonists for 8 h prior to challenge. On the day of challenge, subjects must be wheeze-free, with an FEV1>than 80% of the previously observed highest value. If the patient has an intercurrent respiratory infection, inhalation challenge is postponed for at least 6 wk. Antigens to which the subject is perennially exposed (e.g., mite, cat) are utilized whenever possible to minimize the impact of seasonal variations in environmental exposure to the specific antigen. Further, antigen testing is conducted out of the respective allergen season, or after attempts to minimize environmental exposure (e.g., to mites or cats) have been implemented. Antigenic challenge generally begins between 7:30 and 8:00 am and the patient is monitored for a minimum of 12 h following antigenic challenge. […] The subject breathes quietly from a continuous hand-held nebulizer for 2 min at each concentration. Following each concentration, the FEV1 is measured at 5 min intervals (DS Plus, Warren E. Collins, Inc., Braintree, Mass.). […] Once a 20% drop in FEV1 is measured, or following the highest concentration, spirometry is performed every 15 min for the first hour and then hourly for the next 11 h.

[4] = in vivo
Experimental: Serum is extracted from 2 ml of venous blood from donors. Briefly, blood samples are incubated at 37° C. for 30 min. Blood clots are removed from the serum by centrifugation (600×g, 10 min). Residual red blood cells are removed from the serum by centrifugation using a Beckman Microfuge E for 5 min. After the addition of 1.9 ml of water to a 0.1 ml aliquot of the serum, lipids are extracted by the method of Bligh and Dyer (Bligh and Dyer, Can. J. Biochem. Physiol., 37:911-920, 1959); Chilton et al., J. Biol. Chem., 258:7268-7271, 1983). A portion (5%) of the extracted lipids is used to determine the mole quantities of fatty acids by GC/MS. Serum components are isolated into individual glycerolipid classes by TLC (System II or normal phase HPLC (Bligh and Dyer, 1959).
Free fatty acids are obtained from glycerolipids by base hydrolysis using 2 N KOH (30 min, 60° C.). […] The carboxylate anion of all fatty acids of interest and [^2H3]-stearic acid and [^2H8]-arachidonate (internal standard) are analyzed by NICI GC/MS using a Hewlett Packard mass spectrometer (HP 5989A). […]
The next set of studies was designed to determine the distribution of supplemented fatty acids or their metabolites within individual glycerolipid classes of serum. […] Serum glycerolipids were separated by TLC and fractions were analyzed for fatty acid content following base hydrolysis by NICI-GC/MS.

neutrophils [5] = conditions: 3.0 g/day GLA
From the text: A final set of studies measured changes in the capacity of neutrophils to generate PAF ex vivo before and after GLA supplementation.

human eosinophils = conditions: eosinophils from atopic subjects incubated with GLA
Experimental: Eosinophils are purified by negative, immunomagnetic selection using monoclonals against FcKRIII (CD 16) present on neutrophils. Antibody tagged neutrophils are then incubated with anti-mouse IgG conjugated magnetic beads and removed by filtration over a magnetized steel wool column.
Therefore, it was important to determine how GLA was metabolized by human eosinophils. Thus, eosinophils were isolated from atopic subjects and incubated with GLA as described above.

neutrophils [6] = tested on: neutrophils
Experimental: Free fatty acids are obtained from glycerolipids by base hydrolysis using 2 N KOH (30 min, 60° C.). After the addition of an equal volume of water, the pH of the reaction mixture is adjusted to 3 using 6 N HCl. Free fatty acids are then extracted with ethyl ether and converted to pentafluorobenzylesters using an equal volume of 20% pentafluorobenzylchloride in acetonitrile and 20% diisopropylethylamine in acetonitrile. The carboxylate anion of all fatty acids of interest and [^2H3]-stearic acid and [^2H8]-arachidonate (internal standard) are analyzed by NICI GC/MS using a Hewlett Packard mass spectrometer (HP 5989A).
Neutrophils were next obtained from subjects before and after supplementation and stimulated with ionophore A23187.

human neutrophils [7] = assay: In vitro metabolism of GLA / DGLA in cultured human neutrophils; type: cell-based
Experimental: It is generally assumed that the liver has a key role in the in vivo elongation and desaturation of n-6 fatty acids. However, the role of other cells (especially inflammatory cells) and tissues has not been extensively studied. In addition, it is critical to evaluate the mechanism of leukotriene inhibition in less complex (than in vivo model) systems. To begin to address these problems, the inventor developed a model in which neutrophils could be incubated long-term with fatty acids or other fatty acid derivatives. Human neutrophils have been isolated and cultured overnight in RPMI, 2% insulin-transferrin and fetal bovine serum (FBS). In initial studies, varying concentrations of GLA (complexed to albumin) were provided to these cultured neutrophils for 24 h. […] In contrast, there was no change in the quantity of AA in neutrophil phospholipids. […] Furthermore, they provide direct evidence that the neutrophils themselves can elongate GLA […].
It has been long recognized that arachidonate is hydrolyzed from membrane glycerolipids by phospholipase A2 isotypes during cell stimulation. However, to date, there is little direct evidence that similar mechanisms exist to mobilize DGLA. To examine this question, neutrophils that had been cultured with varying concentrations of GLA (0 to 200 nmol) were stimulated with ionophore A23187, and mobilized fatty acids were measured by NICI GC/MS. […] To determine if neutrophils can further metabolize DGLA to oxygenated products, stimulated cells were provided [^14C]-DGLA and products were measured by reverse HPLC. […] FIG. 11 illustrates that A23187 stimulated neutrophils produce a labeled product that migrated with 15-HETrE.

neutrophils [8] = conditions: 3.0 g/day GLA; remark: listed apart in the source
Experimental: as §1
To examine this question, neutrophils were stimulated and the synthesis of LTB4, 20-OH LTB4, and the 6 trans isomers of LTB4 were measured by reverse phase HPLC analysis.

atopic asthmatics [9] = assay: Inhaled antigen challenge model of atopic asthma with prednisone; type: in vivo, human; conditions: 40 mg prednisone daily for 7 days
From the text: Clinical data on each patient is entered into a database consisting of the following elements. Demographic data (age, sex, race, smoking history), and the data elements used to fulfill the above diagnostic criteria, spirometric data, presence of atopy (positive “prick” skin testing to respirable antigens), presence of LAR to inhaled antigen, and presence of allergic rhinoconjunctivitis. • Allergen skin testing—Atopic asthmatic subjects are identified by skin testing using the skin prick method at a 1:10 (wt/vol) dilution of 20 stock antigen solutions (Greer Laboratories, Lenoir, N.C.). Subjects must not be receiving immunotherapy, nor may they be treated with systemic corticosteroids for a minimum of 4 wk. Short acting antihistamines are avoided for at least 24 h and long acting for at least 7 days. […] Antigenic challenge generally begins between 7:30 and 8:00 am and the patient is monitored for a minimum of 12 h following antigenic challenge. […] Following each concentration, the FEV1 is measured at 5 min intervals (DS Plus, Warren E. Collins, Inc., Braintree, Mass.). […] Once a 20% drop in FEV1 is measured, or following the highest concentration, spirometry is performed every 15 min for the first hour and then hourly for the next 11 h.

human neutrophils [10] = assay: In vitro metabolism of stearidonic acid in cultured human neutrophils; type: cell-based; conditions: 24 h
From the text: As described above, human neutrophils (in vitro in overnight culture) will take up GLA and elongate it to DGLA but not further desaturate that DGLA to AA. An alternative route to depleting AA in neutrophils may also be useful in modulating the inflammatory responses mediated by AA and its metabolites. It was contemplated that the n-3 fatty acid, stearidonic acid (18:4) would also be elongated in neutrophils to form ω-3 arachidonic acid (FIG. 1). Varying concentrations of stearidonic acid were provided to cultured neutrophils for 24 h. Lipids were extracted and the quantities of fatty acids determined after base hydrolysis using GC/MS.

[11] = 4.5 g GLA as borage oil, 3 weeks, contemplated

IC50 [1]: ~5 µM
Compound: CCCCCC(O)/C=C/C=C\C/C=C\CCCCCCC(=O)O (centres unmarked) [15-HETrE, 15-OH-20:3, reference compound]

IC50 ([1]; Homo sapiens, Neutrophil): ~10 µM
Compound: CCCCC/C=C\C/C=C\C/C=C\CCCCCCC(=O)O [DGLA, dihomogammalinolenic acid]

Compound: CC/C=C\C/C=C\C/C=C\C/C=C\C/C=C\CCCC(=O)O [EPA, eicosapentaenoic acid]
inhibition at 50 µM [2]: 50%

AA in serum lipids vs baseline [4]: significantly increased
DGLA in eosinophil glycerolipids (human eosinophils): marked increase
quantity of AA in eosinophil glycerolipids (human eosinophils): no change
quantity of AA in neutrophil phospholipids (human neutrophils [7]; cultured neutrophils, varying concentrations of GLA, 24 h): no change
Compound: CCCCC/C=C\C/C=C\C/C=C\CCCCC(=O)O [GLA, gammalinolenic acid]
antigen-induced urinary LTE4 and BALF AA increases (atopic asthmatics [3]; [11]): attenuate
influx of eosinophils into airways during the LAR (atopic asthmatics [3]; [11]): reduce
response to antigen challenge (decrements in FEV1, immediate and late) (atopic asthmatics [3]; [11]): mitigate
magnitude of the early asthmatic response (atopic asthmatics [3]; four weeks GLA supplementation, compared to pre- and post-supplementation, two subjects): diminished
late asthmatic response (atopic asthmatics [3]; four weeks GLA supplementation, two subjects): did not influence
reduction in PAF produced by neutrophils vs before supplementation (neutrophils [5]): 40%
increase in release of DGLA from stimulated neutrophils (neutrophils [6]; 1.5 g/day GLA): 63%
increase in release of DGLA from stimulated neutrophils (neutrophils [6]; 3.0 g/day GLA): 65%
increase in release of DGLA from stimulated neutrophils (neutrophils [6]; 6.0 g/day GLA): 69%
release of AA from neutrophil glycerolipids after A23187 stimulation (neutrophils [6]; following GLA supplementation): did not change
quantity of DGLA in neutrophil glycerolipids (human neutrophils [7]; cultured neutrophils, varying concentrations of GLA complexed to albumin, 24 h): increased as a function of the concentration of GLA
fatty acids mobilized on A23187 stimulation (human neutrophils [7]; neutrophils cultured with GLA (0 to 200 nmol)): DGLA along with AA were released
20-OH LTB4, 6-trans LTB4 and 6-trans 12-epi LTB4 levels after supplementation (neutrophils [8]): decreased to a similar degree
reduction in LTB4 produced by stimulated neutrophils vs before supplementation (neutrophils [8]): 60%

Compound: C[C@]12C=CC(=O)C=C1CC[C@@H]1[C@@H]2C(=O)C[C@@]2(C)[C@H]1CC[C@]2(O)C(=O)CO [prednisone]
immediate response and LAR (fall in FEV1) after antigen challenge (atopic asthmatics [9]): ablated
level of eosinophil cationic protein (ECP) in BALF after antigen challenge (atopic asthmatics [9]; p=0.03): suppressed

AA in neutrophils (human neutrophils [10]): nor was there an increase
eicosapentaenoic acid (Δ5 desaturase product of ω-3 arachidonic acid) in neutrophils (human neutrophils [10]): no increase
Compound: CC/C=C\C/C=C\C/C=C\C/C=C\CCCCC(=O)O [stearidonic acid]
ω-3 arachidonic acid in neutrophil glycerolipids (human neutrophils [10]; varying concentrations of stearidonic acid): dose-dependent increase; also recorded: dramatic increase
